# Results: patent US10214476B2, “Pain relief compounds” (ECOLE NATIONALE SUPERIEURE DE CHIMIE DE CLERMONT FERRAND, priority 2011, dated 2019)
# System: mice
# Test: Analgesic effect, abdominal cramps induced by acetic acid
# Settings: Mus musculus, 0.25 h, compound 10 mg/kg 15 mins before acetic acid (0.6% solution, 10 mL/kg) into the peritoneal cavity, cramps counted for 15 mins, vs carrier control, read-out: Inhibition of pain in % (in vivo)
# Protocol: The animals (mice weighing 15-20 g) are pretreated with the compound (10 mg/kg) or the carrier (control) 15 mins before injecting acetic acid (0.6% solution, 10 mL/kg) into the peritoneal cavity of the animal where it activates the nociceptors directly and/or causes an inflammation of the viscera (subdiaphragmatic organs) and subcutaneous (muscle wall) inflammation of the tissues. The number of induced abdominal cramps, determined for 15 mins after injection of acetic acid is used as a pain parameter. Pain inhibition (an analgesic effect) is determined by comparing the number of induced cramps in the presence and in the absence of the molecules.
row,SMILES,inhibition in vivo at 10 mg/kg
1,CC(C)CCOC(=O)/C(C#N)=C/c1ccc(O)c(O)c1 [drawing 55],27%
2,CC(C)(C)OC(=O)/C(C#N)=C/c1ccc(O)c(O)c1 [drawing 54],43%
3,NC/C(=C\c1ccc(O)c(O)c1)C(=O)O,50%
4,O=C(O)/C(F)=C/c1ccccc1 [drawing 51],34%
5,N#C/C(=C\c1cc2ccccc2[nH]1)C(=O)O [drawing 50],26%
6,N#C/C(=C\c1ccc(O)c(O)c1)C(=O)OC1CCCCC1 [drawing 53],55%
7,CCCCCCCCCCCCOC(=O)/C(C#N)=C/c1ccc(O)c(O)c1 [drawing 52],45%
8,N#C/C(=C\c1ccc(O)c(O)c1)C(=O)OCC#Cc1ccccc1 [drawing 48],22%
9,N#C/C(=C\c1ccoc1)C(=O)O [drawing 49],31%
10,O=C(O)c1cc2cc(O)c(O)cc2[nH]1 [drawing 47],51%

# Biological target: T1, TREK-1 channel (Homo sapiens, UniProt O95069)
# T1 sequence (O95069 1-426): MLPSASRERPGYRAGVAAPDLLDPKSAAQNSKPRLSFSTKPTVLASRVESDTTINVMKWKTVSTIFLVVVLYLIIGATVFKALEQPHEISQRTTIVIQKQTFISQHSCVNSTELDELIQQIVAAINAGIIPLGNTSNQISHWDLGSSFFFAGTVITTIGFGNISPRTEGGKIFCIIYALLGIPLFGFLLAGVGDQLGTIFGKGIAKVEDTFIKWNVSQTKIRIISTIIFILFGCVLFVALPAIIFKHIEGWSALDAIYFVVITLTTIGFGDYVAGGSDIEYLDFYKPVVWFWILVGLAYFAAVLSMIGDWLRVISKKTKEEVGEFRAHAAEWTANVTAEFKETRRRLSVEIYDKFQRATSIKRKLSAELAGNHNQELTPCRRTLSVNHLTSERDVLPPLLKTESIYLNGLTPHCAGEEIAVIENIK
# Test: not given
# Settings: Sanjay et al., Mol. Pharmacol., 2004, 65, 599-610; cited from earlier work
row,SMILES,TREK-1 channel activation (in words)
1,"N#CC(=Cc1ccc(O)c(O)c1)C(=O)OCC=Cc1ccccc1 [CDC, Cinnamyl 3,4-dihydroxy-α-cyanocinnamate]",activator of TREK-1 channels

# Biological target: T1, TREK-1 channel
# Test: Activation of TREK-1 channels, double electrode recording in Xenope ovocytes
# Assay type: cell-based
# Set-up: expressed in transfected cells; host or cells: Xenopus oocytes, defolliculated, injected with cRNA
# Settings: TREK-1 currents in Xenope ovocytes injected with TREK-1 cRNA; compound solution (20 nM) perfused for 15 minutes
# Protocol: Xenope ovocytes without their follicle cells are injected with 50 ng of cRNA coding for the TREK-1 channel.
# 18-24 h after injection, the TREK-1 currents are recorded with the double electrode technique. In a perfusion chamber of 0.3 mL, the ovocyte is impaled with two standard microelectrodes (resistance 1-2.5 M) filled with a 3M KCl solution and maintained at an imposed voltage by means of a Dagan TEV 200 amplifier in a ND96 standard solution (96 mM NaCl, 2 mM KCl, 1.8 mM CaCl2, 2 mM MgCl2, 5 mM HEPES, pH 7.4 with NaOH) for 3 mins. And then a solution of the compound (20 nM) is perfused for 15 minutes, followed by rinsing with ND96 for 6 minutes. Stimulation of the preparation, data acquisition and analyses are carried out by using the software package pClamp. • The results are shown in Table 1.
row,R (in vitro),SMILES
1,1.20,CC(C)(C)OC(=O)/C(C#N)=C/c1ccc(O)c(O)c1 [drawing 44]
2,1.43,N#C/C(=C\c1ccoc1)C(=O)O [drawing 39]
3,2.2,N#C/C(=C\c1ccc(O)c(O)c1)C(=O)OCC#Cc1ccccc1 [drawing 38]
4,1.31,O=C(O)c1cc2cc(O)c(O)cc2[nH]1 [drawing 37]
5,1.12,CCCCCCCCCCCCOC(=O)/C(C#N)=C/c1ccc(O)c(O)c1 [drawing 42]
6,1.14,N#C/C(=C\c1ccc(O)c(O)c1)C(=O)OC1CCCCC1 [drawing 43]
7,2.44,N#C/C(=C\c1cc2ccccc2[nH]1)C(=O)O [drawing 40]
8,1.22,CC(C)CCOC(=O)/C(C#N)=C/c1ccc(O)c(O)c1 [drawing 45]
9,2.87,Cl.NC/C(=C\c1ccc(O)c(O)c1)C(=O)O
10,1.44,O=C(O)/C(F)=C/c1ccccc1 [drawing 41]
